Assay results reported in PubChem BioAssay AID1224921 (Broad Institute, 2016).
Calls of active or inactive are those of the source. No rule for the calls is given here.

The molecules below were run on Clostridioides difficile clinical isolate growth, OD600, 24 h (assay: C. difficile growth inhibition, confirmation, 4-point retest (AID 1224921)).

`C[C@H]1CCCCO[C@@H](CN(C)CC2CCCCC2)[C@@H](C)CN([C@@H](C)CO)C(=O)c2cc(NC(=O)Nc3ccc(C(F)(F)F)cc3)ccc2O1` and `C[C@@H]1CCCCO[C@H](CN(C)CC2CCCCC2)[C@H](C)CN([C@H](C)CO)C(=O)c2cc(NC(=O)Nc3ccc(C(F)(F)F)cc3)ccc2O1` are within 1.5-fold of each other in AC50: 17.3 µM for the first, 13.6 µM for the second.

`CO[C@@H](CN(C)Cc1cc(F)ccc1F)[C@@H](C)CN(C(=O)Nc1ccc(C(F)(F)F)cc1)[C@@H](C)CO` and `CO[C@H](CN(C)Cc1cc(F)ccc1F)[C@H](C)CN(C(=O)Nc1ccc(C(F)(F)F)cc1)[C@H](C)CO` are within 1.5-fold of each other in AC50: 13.1 µM for the first, 10.3 µM for the second.

First: O=C(C[C@@H]1CC[C@@H]2[C@H](COC[C@H](O)CN2C(=O)Nc2cc(Cl)cc(Cl)c2)O1)NCC1CC1
Second: O=C(C[C@@H]1CC[C@@H]2[C@H](COC[C@H](O)CN2C(=O)Nc2cc(Cl)cc(Cl)c2)O1)N1CCOCC1
The AC50 of the first is 2.6-fold higher: 16.9 µM for the first, 6.6 µM for the second.

`O=C(C[C@@H]1CC[C@@H]2[C@H](COC[C@@H](O)CN2C(=O)Nc2ccc(C(F)(F)F)cc2)O1)NCCc1ccncc1` and `CCNC(=O)C[C@H]1CC[C@H]2[C@@H](COC[C@@H](O)CN2C(=O)Nc2ccc(C(F)(F)F)cc2)O1` are within 1.5-fold of each other in AC50: 4.07 µM for the first, 2.77 µM for the second.

Going from `O=C(C[C@H]1CC[C@@H]2[C@H](COC[C@@H](O)CN2C(=O)Nc2ccc(Cl)c(Cl)c2)O1)NCc1ccc(Cl)c(Cl)c1` to `O=C(C[C@@H]1CC[C@@H]2[C@H](COC[C@@H](O)CN2C(=O)Nc2ccc(Cl)c(Cl)c2)O1)NCc1ccc(Cl)cc1`, the AC50 falls from 3.34 µM to 0.98 µM (3.4-fold).

Going from `CCC(=O)N[C@@H]1CC[C@@H](CCNC(=O)Nc2ccc(C(F)(F)F)cc2)O[C@@H]1CO` to `CCC(=O)N[C@H]1CC[C@@H](CCNC(=O)Nc2ccc(C(F)(F)F)cc2)O[C@H]1CO`, the AC50 falls from 3.9 µM to 2.41 µM (1.6-fold).

`CO[C@H]1CN(C)C(=O)c2ccc(NC(=O)Nc3ccc(Cl)c(Cl)c3)cc2OC[C@H](C)NC[C@H]1C` and `CO[C@@H]1CN(C)C(=O)c2cc(NC(=O)Nc3ccc(Cl)c(Cl)c3)ccc2OC[C@H](C)NC[C@H]1C` are within 1.5-fold of each other in AC50: 9.83 µM for the first, 6.72 µM for the second.

Compared with `O=C(C[C@H]1CC[C@H]2[C@@H](COC[C@@H](O)CN2C(=O)Nc2ccc(C(F)(F)F)cc2)O1)NCC1CCCCC1`, `O=C(C[C@@H]1CC[C@@H]2[C@H](COC[C@@H](O)CN2C(=O)Nc2ccc(C(F)(F)F)cc2)O1)NCC1CCCCC1` is 1.6-fold higher in AC50: 1.27 µM for the first, 2.03 µM for the second.

First: COc1ccccc1CNC(=O)C[C@@H]1CC[C@H]2[C@@H](COC[C@@H](O)CN2C(=O)Nc2ccc(C(F)(F)F)cc2)O1
Second: COc1ccccc1CNC(=O)C[C@H]1CC[C@@H]2[C@H](COC[C@H](O)CN2C(=O)Nc2ccc(C(F)(F)F)cc2)O1
The AC50 of the first is 2.1-fold higher: 2.14 µM for the first, 1.04 µM for the second.

`O=C(C[C@@H]1CC[C@@H]2[C@H](COC[C@@H](O)CN2S(=O)(=O)c2ccccc2)O1)NCC1CCCCC1` and `O=C(C[C@@H]1CC[C@H]2[C@@H](COC[C@H](O)CN2S(=O)(=O)c2ccccc2)O1)NCC1CCCCC1` are within 1.5-fold of each other in AC50: 15.2 µM for the first, 15.6 µM for the second.

Compared with `O=C(C[C@H]1CC[C@H]2[C@@H](COC[C@H](O)CN2S(=O)(=O)c2ccc(F)cc2)O1)NCC1CCCCC1`, `O=C(C[C@@H]1CC[C@H]2[C@@H](COC[C@@H](O)CN2C(=O)Nc2ccc(C(F)(F)F)cc2)O1)NCC1CC1` is 3.9-fold lower in AC50: 15.4 µM for the first, 3.98 µM for the second.

First: CNC(=O)C[C@H]1CC[C@H]2[C@@H](COC[C@H](O)CN2C(=O)Nc2ccc(Cl)c(Cl)c2)O1
Second: CCNC(=O)C[C@H]1CC[C@@H]2[C@H](COC[C@H](O)CN2C(=O)Nc2ccc(Cl)c(Cl)c2)O1
The AC50 of the first is lower: less than 1.95 µM for the first, 3.02 µM for the second.

Going from `Cc1ccc(S(=O)(=O)Nc2ccc3c(c2)C(=O)N([C@@H](C)CO)C[C@H](C)[C@@H](CN(C)Cc2ccc4c(c2)OCO4)OCCCC[C@@H](C)O3)cc1` to `C[C@@H]1CN([C@@H](C)CO)C(=O)c2cc(NC(=O)Nc3ccc(C(F)(F)F)cc3)ccc2O[C@@H](C)CCCCO[C@H]1CN(C)Cc1ccc2c(c1)OCO2`, the AC50 rises from 7.88 µM to 23.9 µM (3-fold).

`O=C(C[C@H]1CC[C@H]2[C@@H](COC[C@@H](O)CN2C(=O)Nc2ccc(Cl)c(Cl)c2)O1)NCc1ccc(F)cc1` and `O=C(C[C@@H]1CC[C@@H]2[C@H](COC[C@@H](O)CN2C(=O)Nc2ccc(Cl)c(Cl)c2)O1)NCc1ccc(F)cc1` are within 1.5-fold of each other in AC50: 1.36 µM for the first, 1.87 µM for the second.

First: CO[C@@H](CN(C)C(=O)C1CC1)[C@@H](C)CN(C(=O)Nc1ccc(C(F)(F)F)cc1)[C@H](C)CO
Second: CO[C@H](CN(C)S(=O)(=O)c1cn(C)cn1)[C@@H](C)CN(C(=O)Nc1ccc(C(F)(F)F)cc1)[C@H](C)CO
The AC50 of the first is 6.8-fold higher: 14.7 µM for the first, 2.16 µM for the second.

Compared with `O=C(NCC[C@@H]1CC[C@H](NC(=O)C2CC2)[C@@H](CO)O1)Nc1ccc(C(F)(F)F)cc1`, `CCC(=O)N[C@H]1CC[C@H](CCNC(=O)Nc2ccc(C(F)(F)F)cc2)O[C@H]1CO` is 8.5-fold higher in AC50: 1.95 µM for the first, 16.5 µM for the second.

`CO[C@@H]1CN(C)C(=O)c2ccc(NC(=O)Nc3cc(Cl)cc(Cl)c3)cc2OC[C@H](C)NC[C@H]1C` and `CO[C@H]1CN(C)C(=O)c2cc(NC(=O)Nc3ccc(Cl)c(Cl)c3)ccc2OC[C@@H](C)NC[C@H]1C` are within 1.5-fold of each other in AC50: 7.81 µM for the first, 9.16 µM for the second.

`CCCNC(=O)C[C@H]1CC[C@@H]2[C@H](COC[C@H](O)CN2C(=O)Nc2ccc(Cl)c(Cl)c2)O1` and `CCCNC(=O)C[C@@H]1CC[C@H]2[C@@H](COC[C@@H](O)CN2C(=O)Nc2ccc(Cl)c(Cl)c2)O1` are within 1.5-fold of each other in AC50: 3.77 µM for the first, 2.59 µM for the second.

First: CCCN(C)C[C@@H]1OCCCC[C@H](C)Oc2ccc(NC(=O)Nc3ccc(C(F)(F)F)cc3)cc2C(=O)N([C@@H](C)CO)C[C@@H]1C
Second: C[C@@H]1CN([C@H](C)CO)C(=O)c2cc(NC(=O)Nc3ccc(C(F)(F)F)cc3)ccc2O[C@@H](C)CCCCO[C@H]1CN(C)Cc1ccc2c(c1)OCO2
The AC50 of the first is 1.6-fold higher: 12.5 µM for the first, 7.9 µM for the second.

`C[C@@H]1CN([C@H](C)CO)S(=O)(=O)c2ccc(C#CC3CCCCC3)cc2O[C@@H]1CN(C)C` and `CN(C)CC(=O)N1[C@H](C#N)[C@H](c2ccc(C#CC3CCCCC3)cc2)[C@H]1CO` are within 1.5-fold of each other in AC50: 16.9 µM for the first, 14.2 µM for the second.

Going from `O=C(C[C@@H]1CC[C@@H]2[C@H](COC[C@H](O)CN2Cc2ccc(Oc3ccccc3)cc2)O1)N1CCCCC1` to `O=C(C[C@@H]1CC[C@H]2[C@@H](COC[C@@H](O)CN2C(=O)Nc2cc(Cl)cc(Cl)c2)O1)N1CCCCC1`, the AC50 falls from 20.6 µM to 6.58 µM (3.1-fold).

Going from `COc1ccc(NC(=O)Nc2cccc3c2O[C@H](CN(C)Cc2ccc(C(F)(F)F)cc2)[C@H](C)CN([C@@H](C)CO)C3=O)cc1` to `COc1ccccc1C#Cc1ccc([C@H]2[C@@H](CO)N(C(=O)C3CCCCC3)[C@H]2C#N)cc1`, the AC50 rises from 15.9 µM to 34.2 µM (2.2-fold).

For `CCNC(=O)C[C@H]1CC[C@H]2[C@@H](COC[C@@H](O)CN2C(=O)Nc2ccc(Cl)c(Cl)c2)O1`, the AC50 was 3.9 µM.

For `C[C@H]1CN([C@@H](C)CO)C(=O)c2ccccc2-c2ccccc2CO[C@H]1CN(C)Cc1ccc(F)cc1`, the AC50 was > 16 µM (inactive).
In the case of `CN(C)CC(=O)N[C@@H]1C=C[C@@H](CC(=O)NCCN2CCCCC2)O[C@H]1CO`, the AC50 is reported as > 60 µM (inactive).
With `O=C(C[C@H]1CC[C@H](NC(=O)CN2CCOCC2)[C@@H](CO)O1)NCc1cccc(F)c1` the AC50 was > 60 µM (inactive).
`C[C@@H]1CN([C@H](C)CO)C(=O)c2cc(NS(=O)(=O)c3ccc(Cl)cc3)ccc2O[C@@H](C)CCCCO[C@H]1CN(C)Cc1ccc(C(F)(F)F)cc1` was tested, and the AC50 was > 60 µM (inactive).
In the case of `C[C@H](C(=O)N(C)C[C@@H]1OCc2ccccc2-c2ccccc2C(=O)N([C@H](C)CO)C[C@@H]1C)c1ccccc1`, the AC50 is reported as > 60 µM (inactive).
In the case of `C[C@@H]1CCCCO[C@H](CN(C)C(=O)Nc2ccc(C(F)(F)F)cc2)[C@H](C)CN([C@@H](C)CO)C(=O)c2cc(N(C)C)ccc2O1`, the AC50 is reported as > 60 µM (inactive).
For `CCCC(=O)Nc1ccc2c(c1)C(=O)N(C)[C@@H]1CC[C@@H](CC(=O)OC)O[C@@H]1CO2`, the AC50 was > 60 µM (inactive).
